Measurements from patent US20230277661A1, “TREATMENT OF CANCER USING A CEA CD3 BISPECIFIC ANTIBODY AND A TGFbeta SIGNALING INHIBITOR” (Hoffmann-La Roche Inc., priority 2020, published 2023).
Read-outs that look alike come from different tables or passages of the source.

Columns and labels:
[1] = tested on: PDOs that stably express high CEA levels; experiment: PDO and ex vivo CD8 T-cell co-culture with TGFβ inhibitor galunisertib; format: cell-based, human; conditions: galunisertib 5 μM or 10 μM; TGFβ 10 ng/ml; cibisatamab 20 nM; ex vivo CD8 T cells, E:T 1:1; two PDO models
Procedure: PDOs that stably express high CEA levels were combined with ex vivo allogeneic CD8 T cells isolated from healthy donor PBMCs in a 2D co-culture at an effector:target (E:T) ratio of 1:1. T cells were preincubated with TGFβ (10 ng/ml) prior to adding either DP47 or cibisatamab treatment with or without TGFβ inhibitor galunisertib.
The growth of GFP PDOs was tracked by monitoring changes in confluency with fluorescence microscopy and efficacy of the combination therapy assessed by comparing growth reduction from single therapy and combined therapy conditions.
Ex vivo CD8 T cells were isolated from PBMCs as described above and pre-incubated with TGFβ (10 ng/ml) for 72 hours before being combined with tumour cells that were seeded 24 hours before at a density of 5000 tumour cells per well in a 96 well plate as described above (E:T 1:1). On the same day (day 0) the co-culture was treated with either 20 nM of cibisatamab or 20 nM of the untargeted negative control antibody DP47-TCB +/− TGFβ ([…]) +/− galunisertib (5 μM or 10 μM, Tocris). All conditions were plated in triplicates.
(§1) The GFP confluence was quantified every 48-96 hrs over a 12-day period using the GFP confluence application on the Celigo Imaging Cytometer (Nexcelom Bioscience). […] In order to calculate the percentage of growth reduction, the fold change of growth from day 0 to day 12 was calculated and 1 was subtracted. […]

CD8 T-cells = experiment: FACS analysis of CD8 T-cells co-cultured with PDOs; format: cell-based, human; conditions: 8 days co-culture with PDOs during CEA-TCB treatment; flow cytometry
Procedure: FIG. 3. Effect of TGFβ on granzyme expression and proliferation of CD8 T-cells. (A) Granzyme expression in ex vivo CD8 T-cells determined by flow cytometry after 8 days of co-culture with a high cell surface CEA expressing PDO. (B) Proliferation of ex vivo CD8 T-cells treated with either DP47-TCB or cibisatamab assessed by flow cytometry after 8 days of co-culture with a high cell surface CEA expressing PDO. (C) Same as (B) except that co-culture was treated with recombinant TGFβ.
Thus, TGFβ potently suppresses cibisatamab mediated tumor control by blocking proliferation and effector functions.

[2] = tested on: patient-derived colorectal cancer organoid lines (PDOs) with high cell surface CEA expression levels; experiment: PDO growth in co-culture with CD8 or CD4 T cells (GFP confluence); format: cell-based, human
Procedure: Three patient-derived colorectal cancer organoid lines (PDOs) with high cell surface CEA expression levels were treated with cibisatamab (20 nM) or the corresponding untargeted control antibody DP47-TCB (see SEQ ID NOs 21 and 22 for VH and VL regions, respectively) (20 nM) either in the presence or absence of recombinant TGFβ1 (10 ng/ml) during 12 days of co-culture with allogeneic CD8 T cells at an Effector:Target ratio of […] (FIG. 1A). Growth of the nuclear GFP labelled organoid cells was monitored by fluorescent microscopy. CD8 T cells had been generated from allogeneic healthy donor cells by extracting peripheral blood mononuclear (PBMCs) cells followed by stimulation with IL-2 and CD3/CD28-beads and expansion in vitro. CD8 T cells and PDOs +/− TGFβ (10 ng/ml) were pre-incubated together for 72 hours prior to the addition of cibisatamab or DP47-TCB.
The same experiment was repeated using two PDO lines and CD4 T cells instead of CD8 T cells (FIG. 1B). CD4+CD25-T cells were isolated from allogeneic healthy donor PBMCs and expanded in vitro as described above.
The initial screen was generated with in vitro expanded and pre-activated CD8 T-cells. […]
In order to calculate the growth of cibisatamab treated PDOs relative to DP47-TCB treated PDOs, the fold change of growth from day 0 to day 12 was calculated and 1 was subtracted. […]
PDOs were harvested with TrypLE Express and neutralised with DMEM/F12 Ham medium (Sigma Aldrich) with 10% FBS. Cells were filtered through a 70 μm filter, counted and re-suspended in RPMI medium (Thermo Fisher) supplemented with 10% FBS (Labtech), 1X Glutamax and 100 units penicillin-streptomycin. […]
as §1

[3] = tested on: CEA expressing metastatic CRCs; conditions: cited from earlier work

Molecule: Cc1cccc(-c2nn3c(c2-c2ccnc4ccc(C(N)=O)cc24)CCC3)n1 [Galunisertib, 4-(5,6-Dihydro-2-(6-methyl-2-pyridinyl)-4H-pyrrolo(1,2-b)pyrazol-3-yl)-6-quinolinecarboxamide]
- reversal of TGFβ effects on cibisatamab activity (PDO growth) [1]: strongly reduced TGFβ effects

Molecule: TGFβ: recombinant TGFβ1 (10 ng/ml, R&D Systems) added to the co-cultures as immunosuppressive factor
- T-cell granzyme expression (CD8 T-cells): strongly reduced
- proliferation of T-cells (CD8 T-cells): strongly reduced
- growth of cibisatamab treated PDOs compared to PDOs treated with cibisatamab alone ([2]; TGFβ 10 ng/ml added, day 12, CD8 and CD4 T cells): increased the growth of cibisatamab treated PDOs
- effect of TGFβ on efficacy of cibisatamab ([2]; TGFβ1 10 ng/ml, cibisatamab 20 nM, CD8 and CD4 T cells, 12 days co-culture): impaired the efficacy of cibisatamab

B1: cibisatamab: T-cell activating bispecific antibody targeting carcinoembryonic antigen (CEA) on tumor cells and CD3 on T-cells (antibody, chains of the INN, looked up, V domains shown)
VH: QVQLVQSGAEVKKPGASVKVSCKASGYTFTEFGMNWVRQAPGQGLEWMGWINTKTGEATYVEEFKGRVTFTTDTSTSTAYMELRSLRSDDTAVYYCARWDFAYYVEAMDYWGQGTTVTVSS
VL: DIQMTQSPSSLSASVGDRVTITCKASAAVGTYVAWYQQKPGKAPKLLIYSASYRKRGVPSRFSGSGSGTDFTLTISSLQPEDFATYYCHQYYTYPLFTFGQGTKLEIK
VH2: QVQLVQSGAEVKKPGASVKVSCKASGYTFTEFGMNWVRQAPGQGLEWMGWINTKTGEATYVEEFKGRVTFTTDTSTSTAYMELRSLRSDDTAVYYCARWDFAYYVEAMDYWGQGTTVTVSS
VL2: QAVVTQEPSLTVSPGGTVTLTCGSSTGAVTTSNYANWVQEKPGQAFRGLIGGTNKRAPGTPARFSGSLLGGKAALTLSGAQPEDEAEYYCALWYSNLWVFGGGTKLTVL
- growth of PDOs relative to DP47-TCB treated (control) PDOs ([2]; cibisatamab 20 nM, day 12, CD8 or CD4 T cells): reduced the growth of PDOs
- antitumor activity with radiological shrinkage, share of patients ([3]; in combination with PD-L1-inhibiting antibodies, 5/10): 50%
- antitumor activity with radiological shrinkage, share of patients ([3]; monotherapy, patients had failed at least two prior chemotherapy regimens, 4/36): 11%
